#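 Interpolation was linear, between the two tested concentrations surrounding the appropriate level; five concentrations were tested over 48 hours in 96-well plates. Abbreviation: GI50, concentration required for 50% inhibition of growth.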 Calls of active or inactive are those of the source. No stated cut-off is given here; in the data, active = GI50 up to about 1.1 µM and inactive = higher.
# Columns and labels:
# Assay in all cases: NCI-60 cell line screen, 48 h
# [1] = system: HCT-116
# [2] = system: SF-295
# [3] = system: OVCAR-8
# [4] = system: CAKI-1
# [5] = system: HOP-62
# [6] = system: NCI-H460
# [7] = system: K562
# [8] = system: ACHN
# [9] = system: NCI-H226
# [10] = system: SK-OV-3
# [11] = system: SF-268
# [12] = system: COLO 205
# [13] = system: IGROV-1
# [14] = system: HCC 2998
# [15] = system: SNB-19
# [16] = system: HOP-92
# [17] = system: UACC-62
# [18] = system: LOX IMVI
# [19] = system: OVCAR-4
# [20] = system: NCI-H23
# [21] = system: EKVX
# [22] = system: SF-539
# [23] = system: MCF7
# [24] = system: NCI-H522
# [25] = system: DU-145
# [26] = system: UO-31
# [27] = system: KM12
# [28] = system: HCT-15
# [29] = system: RPMI-8226
# [30] = system: OVCAR-3
# [31] = system: MDA-N
# [32] = system: U-251
# [33] = system: Malme-3M
# [34] = system: PC-3
# [35] = system: NCI/ADR-RES
# [36] = system: HL-60
# [37] = system: MDA-MB-231
# [38] = system: OVCAR-5
# [39] = system: SK-MEL-28
# [40] = system: A498
# [41] = system: 786-0
# [42] = system: MDA-MB-435
# [43] = system: SK-MEL-5
# [44] = system: Hs-578T
# [45] = system: A549
# [46] = system: M14
# [47] = system: HT-29
# [48] = system: T47D
# [49] = system: BT-549
# [50] = system: TK-10
# [51] = system: SN12C
# [52] = system: SW-620
# [53] = system: RXF 393
# [54] = system: MOLT-4
# [55] = system: UACC-257
# [56] = system: CCRF-CEM
# [57] = system: SR
# [58] = system: SNB-75
# [59] = system: SK-MEL-2
structure (smiles),measurement,setting,value
CNC(=O)CCC(NC(C)=O)C(=O)NC(Cc1ccc(NC(=O)CCCCC(C)=O)cc1)C(=O)NC(CCC(=O)NC)C(=O)NC (stereo not drawn),GI50,[1],> 100 µM (inactive)
same,GI50,[2],> 100 µM (inactive)
same,GI50,[3],> 100 µM (inactive)
same,GI50,[4],> 100 µM (inactive)
same,GI50,[5],> 100 µM (inactive)
same,GI50,[6],> 100 µM (inactive)
same,GI50,[7],> 100 µM (inactive)
same,GI50,[8],> 100 µM (inactive)
same,GI50,[9],> 100 µM (inactive)
same,GI50,[10],> 100 µM (inactive)
same,GI50,[11],> 100 µM (inactive)
same,GI50,[12],> 100 µM (inactive)
same,GI50,[13],> 100 µM (inactive)
same,GI50,[14],> 100 µM (inactive)
same,GI50,[15],> 100 µM (inactive)
same,GI50,[16],> 100 µM (inactive)
same,GI50,[17],> 100 µM (inactive)
same,GI50,[18],> 100 µM (inactive)
same,GI50,[19],> 100 µM (inactive)
same,GI50,[20],> 100 µM (inactive)
same,GI50,[21],> 100 µM (inactive)
same,GI50,[22],> 100 µM (inactive)
same,GI50,[23],> 100 µM (inactive)
same,GI50,[24],> 100 µM (inactive)
same,GI50,[25],> 100 µM (inactive)
same,GI50,[26],> 100 µM (inactive)
same,GI50,[27],> 100 µM (inactive)
same,GI50,[28],> 100 µM
same,GI50,[29],> 100 µM (inactive)
same,GI50,[30],> 100 µM (inactive)
same,GI50,[31],> 100 µM (inactive)
same,GI50,[32],> 100 µM (inactive)
same,GI50,[33],> 100 µM (inactive)
same,GI50,[34],> 100 µM (inactive)
same,GI50,[35],> 100 µM (inactive)
same,GI50,[36],> 100 µM (inactive)
same,GI50,[37],> 100 µM (inactive)
same,GI50,[38],> 100 µM (inactive)
same,GI50,[39],> 100 µM (inactive)
same,GI50,[40],> 100 µM (inactive)
same,GI50,[41],> 100 µM (inactive)
same,GI50,[42],> 100 µM (inactive)
same,GI50,[43],> 100 µM (inactive)
same,GI50,[44],40.2 µM (inactive)
same,GI50,[45],> 100 µM (inactive)
same,GI50,[46],> 100 µM (inactive)
same,GI50,[47],> 100 µM (inactive)
same,GI50,[48],> 100 µM (inactive)
same,GI50,[49],> 100 µM (inactive)
same,GI50,[50],> 100 µM (inactive)
same,GI50,[51],> 100 µM (inactive)
same,GI50,[52],> 100 µM (inactive)
same,GI50,[53],> 100 µM (inactive)
same,GI50,[54],> 100 µM (inactive)
COc1ccc(C2Oc3c(cccc3OC)C=C2[N+](=O)[O-])cc1 (stereo not drawn),GI50,[1],1.28 µM (inactive)
same,GI50,[55],2.96 µM (inactive)
same,GI50,[2],3.83 µM (inactive)
same,GI50,[3],2.49 µM (inactive)
same,GI50,[4],1.58 µM (inactive)
same,GI50,[5],2.49 µM (inactive)
same,GI50,[6],1.81 µM (inactive)
same,GI50,[7],0.668 µM (active)
same,GI50,[8],1.74 µM (inactive)
same,GI50,[10],4.26 µM (inactive)
same,GI50,[11],2.69 µM (inactive)
same,GI50,[12],2.51 µM (inactive)
same,GI50,[13],3.33 µM (inactive)
same,GI50,[15],3.99 µM (inactive)
same,GI50,[17],1.91 µM (inactive)
same,GI50,[56],0.451 µM (active)
same,GI50,[18],1.2 µM (inactive)
same,GI50,[19],2.96 µM (inactive)
same,GI50,[20],3.08 µM (inactive)
same,GI50,[21],10.6 µM (inactive)
same,GI50,[57],2 µM (inactive)
same,GI50,[23],2.18 µM (inactive)
same,GI50,[24],1.32 µM (inactive)
same,GI50,[25],4.38 µM (inactive)
same,GI50,[26],1.71 µM (inactive)
same,GI50,[27],1.92 µM (inactive)
same,GI50,[28],1.36 µM
same,GI50,[29],2.01 µM (inactive)
same,GI50,[30],2 µM (inactive)
same,GI50,[31],2 µM (inactive)
same,GI50,[32],1.86 µM (inactive)
same,GI50,[33],2.54 µM (inactive)
same,GI50,[34],1.69 µM (inactive)
same,GI50,[35],2.58 µM (inactive)
same,GI50,[36],2.17 µM (inactive)
same,GI50,[37],3.3 µM (inactive)
same,GI50,[38],2.26 µM (inactive)
same,GI50,[39],1.91 µM (inactive)
same,GI50,[41],2.31 µM (inactive)
same,GI50,[42],2.12 µM (inactive)
same,GI50,[43],1.51 µM (inactive)
same,GI50,[44],2.58 µM (inactive)
same,GI50,[45],11.9 µM (inactive)
same,GI50,[46],0.743 µM (active)
same,GI50,[47],1.63 µM (inactive)
same,GI50,[48],3.75 µM (inactive)
same,GI50,[49],1.36 µM (inactive)
same,GI50,[50],2.91 µM (inactive)
same,GI50,[51],2.02 µM (inactive)
same,GI50,[53],1.4 µM (inactive)
same,GI50,[54],1.19 µM (inactive)
O=C(N/N=C(COc1ccccc1)\N=C\c1ccncc1)c1ccncc1,GI50,[58],34.5 µM (inactive)
same,GI50,[1],> 100 µM (inactive)
same,GI50,[55],> 100 µM (inactive)
same,GI50,[2],> 100 µM (inactive)
same,GI50,[3],> 100 µM (inactive)
same,GI50,[4],> 100 µM (inactive)
same,GI50,[5],> 100 µM (inactive)
same,GI50,[6],> 100 µM (inactive)
same,GI50,[7],> 100 µM (inactive)
same,GI50,[8],> 100 µM (inactive)
same,GI50,[10],> 100 µM (inactive)
same,GI50,[11],> 100 µM (inactive)
same,GI50,[12],> 100 µM (inactive)
same,GI50,[13],> 100 µM (inactive)
same,GI50,[14],> 100 µM (inactive)
same,GI50,[15],> 100 µM (inactive)
same,GI50,[16],68.7 µM (inactive)
same,GI50,[17],> 100 µM (inactive)
same,GI50,[56],> 100 µM (inactive)
same,GI50,[18],> 100 µM (inactive)
same,GI50,[19],> 100 µM (inactive)
same,GI50,[20],> 100 µM (inactive)
same,GI50,[59],> 100 µM (inactive)
same,GI50,[21],> 100 µM (inactive)
same,GI50,[22],> 100 µM (inactive)
same,GI50,[23],> 100 µM (inactive)
same,GI50,[25],> 100 µM (inactive)
same,GI50,[27],> 100 µM (inactive)
same,GI50,[28],> 100 µM
same,GI50,[29],97.5 µM (inactive)
same,GI50,[30],> 100 µM (inactive)
same,GI50,[31],> 100 µM (inactive)
same,GI50,[32],> 100 µM (inactive)
same,GI50,[34],> 100 µM (inactive)
same,GI50,[35],> 100 µM (inactive)
same,GI50,[36],> 100 µM (inactive)
same,GI50,[37],> 100 µM (inactive)
same,GI50,[38],> 100 µM (inactive)
same,GI50,[39],> 100 µM (inactive)
same,GI50,[40],> 100 µM (inactive)
same,GI50,[41],> 100 µM (inactive)
same,GI50,[42],> 100 µM (inactive)
same,GI50,[44],> 100 µM (inactive)
same,GI50,[45],> 100 µM (inactive)
same,GI50,[46],> 100 µM (inactive)
same,GI50,[47],> 100 µM (inactive)
same,GI50,[48],> 100 µM (inactive)
same,GI50,[49],> 100 µM (inactive)
same,GI50,[50],> 100 µM (inactive)
same,GI50,[51],> 100 µM (inactive)
same,GI50,[52],> 100 µM (inactive)
same,GI50,[53],> 100 µM (inactive)
same,GI50,[54],82 µM (inactive)
